One test addresses Trypsin (Homo sapiens, UniProt P07477+P07478+P35030). Nature of the test: Inhibitory activity against human trypsin (using Chromozym TH as the substrate). The class given is protein assay.
Another test addresses Prothrombin (Homo sapiens, UniProt P00734). Nature of the test: Inhibitory activity against human thrombin (using Chromozym TH as the substrate).

Regarding `N=C(N)NS(=O)(=O)C(F)(F)C(F)(F)C(F)(F)C(F)(F)F`, the Ki at Trypsin stood at 2100 nM; at Prothrombin it was 520 nM.
As to `COC(=N)NS(=O)(=O)c1ccc(I)cc1`, the Ki on Trypsin stood at 1415 nM; on Prothrombin, 243 nM.
Consider `Cc1ccc(S(=O)(=O)NC(=O)N2CCC[C@H]2C(=O)NCC(=O)Nc2ccc(S(=O)(=O)NN=C(N)N)cc2)cc1`, for which the Ki on Trypsin stood at 1560 nM; at Prothrombin, 15 nM.
As for `Cc1cc(C)c(S(=O)(=O)N=C(N)N)c(C)c1`, the Ki came out at 1450 nM on Trypsin and 255 nM on Prothrombin.
Taken in the same sequence, the figures for `N=C(N)NNS(=O)(=O)c1ccccc1C(=O)O` were 1400 nM and 205 nM.
For `Cc1ccc(S(=O)(=O)NC(=O)N2CCCC2C(=O)Nc2ccc(S(=O)(=O)N=C(N)N)cc2)cc1` (stereo not drawn), in that order: 1445 nM and 48 nM.
Taken in the same sequence, the figures for `CN(C)c1cccc2c(S(=O)(=O)N=C(N)N)cccc12` were 1150 nM and 120 nM.
Regarding `COC(=N)NS(=O)(=O)c1ccc(NC(=O)C2CCCN2C(=O)[C@H](Cc2ccccc2)NC(=O)OCc2ccccc2)cc1` (stereo partly drawn), the figures for the Ki at Trypsin and on Prothrombin were 1435 nM and 16 nM, respectively.
As for `N=C(N)NNS(=O)(=O)c1cc(Cl)cc(Cl)c1O`, the Ki at Trypsin turned out to be 1100 nM; at Prothrombin, 98 nM.
As for `N=C(N)NNS(=O)(=O)c1ccc(Br)cc1`, the Ki on Trypsin was 1215 nM; at Prothrombin it was 203 nM.
Taken in the same sequence, the figures for `Cc1ccc(S(=O)(=O)NC(=O)NCCC(=O)N[C@@H](Cc2c[nH]cn2)C(=O)Nc2ccc(S(=O)(=O)NN=C(N)N)cc2)cc1` were 1390 nM and 10 nM.
Taken in the same sequence, the figures for `COC(=N)NS(=O)(=O)c1ccc(C)cc1` were 2150 nM and 328 nM.
Regarding `N=C(N)NNS(=O)(=O)c1cccc(N)c1`, the Ki was determined as 1400 nM on Trypsin and 88 nM on Prothrombin.
For `Cc1ccc(S(=O)(=O)N=C(N)N)cc1`, in that order: 1810 nM and 290 nM.
Take `COC(=N)NS(=O)(=O)c1ccc(NC(=O)[C@H](Cc2c[nH]cn2)NC(=O)CNC(=O)NS(=O)(=O)c2ccc(C)cc2)cc1`: the Ki on Trypsin worked out at 1550 nM; at Prothrombin, 21 nM.
For `N=C(N)NS(=O)(=O)c1ccc(Cl)cc1`, in that order: 1170 nM and 225 nM.
Regarding `COC(=N)NS(=O)(=O)c1ccc(NC(=O)[C@H](Cc2c[nH]cn2)NC(=O)CCNC(=O)NS(=O)(=O)c2ccc(C)cc2)cc1`, the Ki came to 1420 nM at Trypsin and 19 nM at Prothrombin.
For `COc1ccc(S(=O)(=O)NN=C(N)N)cc1`, in that order: 1275 nM and 227 nM.
Consider `COc1ccc(S(=O)(=O)N=C(N)N)cc1N`, for which the figures for the Ki on Trypsin and on Prothrombin were 1080 nM and 103 nM, respectively.
With `COc1ccc(S(=O)(=O)N=C(N)N)cc1`, the Ki was determined as 1320 nM at Trypsin and 240 nM on Prothrombin.
On to `COC(=N)NS(=O)(=O)C(F)(F)C(F)(F)C(F)(F)C(F)(F)C(F)(F)C(F)(F)C(F)(F)C(F)(F)F`, for which the results for the Ki at Trypsin and on Prothrombin were 2135 nM and 403 nM, respectively.
For `N=C(N)NS(=O)(=O)c1cccc(C(=O)O)c1`, in that order: 1500 nM and 121 nM.
Taken in the same sequence, the figures for `COC(=N)NS(=O)(=O)c1ccc(N)cc1` were 1580 nM and 106 nM.
Taken in the same sequence, the figures for `Cc1ccc(S(=O)(=O)NC(=O)N[C@H](Cc2ccccc2)C(=O)Nc2ccc(S(=O)(=O)N=C(N)N)cc2)cc1` were 1250 nM and 43 nM.
As for `N=C(N)NNS(=O)(=O)c1cccc(C(=O)O)c1`, the results for the Ki at Trypsin and on Prothrombin were 1520 nM and 112 nM, respectively.
For `N=C(N)NS(=O)(=O)c1ccc(C(=N)N)cc1`, in that order: 450 nM and 300 nM.
Turning to `COC(=N)NS(=O)(=O)c1ccc(Cl)cc1`, the Ki at Trypsin was 1325 nM; on Prothrombin it was 266 nM.
Taken in the same sequence, the figures for `COC(=N)NS(=O)(=O)C(F)(F)F` were 1450 nM and 895 nM.
In the case of `N=C(N)NS(=O)(=O)C(F)(F)C(F)(F)C(F)(F)C(F)(F)C(F)(F)C(F)(F)C(F)(F)C(F)(F)F`, the Ki was 1950 nM at Trypsin and 360 nM at Prothrombin.
Taken in the same sequence, the figures for `N=C(N)NS(=O)(=O)c1cc(Cl)cc(Cl)c1O` were 1420 nM and 152 nM.
For `COC(=N)NS(=O)(=O)CC12CCC(CC1=O)C2(C)C` (stereo not drawn), in that order: 1075 nM and 336 nM.
For `COC(=N)NS(=O)(=O)c1cccs1`, in that order: 1350 nM and 213 nM.
As for `COC(=N)NS(=O)(=O)c1ccccc1C(=O)O`, the Ki is 1550 nM on Trypsin and 325 nM at Prothrombin.
`COC(=N)NS(=O)(=O)c1c(F)c(F)c(F)c(F)c1F`: the results for the Ki on Trypsin and at Prothrombin were 1425 nM and 153 nM, respectively.
Take `COC(=N)NS(=O)(=O)c1ccc(NC(=O)[C@@H](Cc2ccccc2)NC(=O)NS(=O)(=O)c2ccc(C)cc2)cc1`: the figures for the Ki on Trypsin and on Prothrombin were 1320 nM and 60 nM, respectively.
Turning to `COC(=N)NS(=O)(=O)c1ccc(Br)cc1`, the Ki on Trypsin worked out at 1370 nM; at Prothrombin, 265 nM.
For `N=C(N)NS(=O)(=O)c1ccc(NC(=O)C2CCCN2C(=O)[C@H](Cc2ccccc2)NC(=O)OCc2ccccc2)cc1` (stereo partly drawn), in that order: 1360 nM and 13 nM.
Taken in the same sequence, the figures for `N=C(N)NS(=O)(=O)c1ccc([N+](=O)[O-])cc1` were 975 nM and 180 nM.
Turning to `CC(=O)Nc1ccc(S(=O)(=O)N=C(N)N)cc1`, the values for the Ki on Trypsin and at Prothrombin were 1070 nM and 195 nM, respectively.
Taken in the same sequence, the figures for `N=C(N)NS(=O)(=O)c1ccc(I)cc1` were 1350 nM and 210 nM.
In the case of `COC(=N)NS(=O)(=O)c1cccc(C(=O)O)c1`, the Ki is 1595 nM at Trypsin and 197 nM at Prothrombin.
Taken in the same sequence, the figures for `N=C(N)NNS(=O)(=O)c1c(F)c(F)c(F)c(F)c1F` were 1350 nM and 123 nM.
Taken in the same sequence, the figures for `N=C(N)NNS(=O)(=O)c1ccc(F)cc1` were 1025 nM and 225 nM.
With `N=C(N)NS(=O)(=O)c1ccc(N)cc1` [SULFAGUANIDINE], the Ki is 1350 nM at Trypsin and 95 nM at Prothrombin.

The Ki is the dissociation constant of the complex between target and ligand, obtained from inhibition or displacement. Higher therefore signals lower affinity.

The record behind these values is ChEMBL document CHEMBL1132933, “Protease inhibitors: synthesis and QSAR study of novel classes of nonbasic thrombin inhibitors incorporating sulfonylguanidine and O-methylsulfonylisourea moieties at P1” (J Med Chem, 2000).
